Data on nine compounds can be found in ChEMBL document CHEMBL4433219, “EC18 as a Tool To Understand the Role of HCN4 Channels in Mediating Hyperpolarization-Activated Current in Tissues” (ACS Med Chem Lett, 2019).

Usually inhibition stands for the relative decrease from the control value, in per cent.

The first test concerns the target T1, Potassium/sodium hyperpolarization-activated cyclic nucleotide-gated channel 4 (Homo sapiens) (UniProt Q9Y3Q4).
T1 sequence (whole entry): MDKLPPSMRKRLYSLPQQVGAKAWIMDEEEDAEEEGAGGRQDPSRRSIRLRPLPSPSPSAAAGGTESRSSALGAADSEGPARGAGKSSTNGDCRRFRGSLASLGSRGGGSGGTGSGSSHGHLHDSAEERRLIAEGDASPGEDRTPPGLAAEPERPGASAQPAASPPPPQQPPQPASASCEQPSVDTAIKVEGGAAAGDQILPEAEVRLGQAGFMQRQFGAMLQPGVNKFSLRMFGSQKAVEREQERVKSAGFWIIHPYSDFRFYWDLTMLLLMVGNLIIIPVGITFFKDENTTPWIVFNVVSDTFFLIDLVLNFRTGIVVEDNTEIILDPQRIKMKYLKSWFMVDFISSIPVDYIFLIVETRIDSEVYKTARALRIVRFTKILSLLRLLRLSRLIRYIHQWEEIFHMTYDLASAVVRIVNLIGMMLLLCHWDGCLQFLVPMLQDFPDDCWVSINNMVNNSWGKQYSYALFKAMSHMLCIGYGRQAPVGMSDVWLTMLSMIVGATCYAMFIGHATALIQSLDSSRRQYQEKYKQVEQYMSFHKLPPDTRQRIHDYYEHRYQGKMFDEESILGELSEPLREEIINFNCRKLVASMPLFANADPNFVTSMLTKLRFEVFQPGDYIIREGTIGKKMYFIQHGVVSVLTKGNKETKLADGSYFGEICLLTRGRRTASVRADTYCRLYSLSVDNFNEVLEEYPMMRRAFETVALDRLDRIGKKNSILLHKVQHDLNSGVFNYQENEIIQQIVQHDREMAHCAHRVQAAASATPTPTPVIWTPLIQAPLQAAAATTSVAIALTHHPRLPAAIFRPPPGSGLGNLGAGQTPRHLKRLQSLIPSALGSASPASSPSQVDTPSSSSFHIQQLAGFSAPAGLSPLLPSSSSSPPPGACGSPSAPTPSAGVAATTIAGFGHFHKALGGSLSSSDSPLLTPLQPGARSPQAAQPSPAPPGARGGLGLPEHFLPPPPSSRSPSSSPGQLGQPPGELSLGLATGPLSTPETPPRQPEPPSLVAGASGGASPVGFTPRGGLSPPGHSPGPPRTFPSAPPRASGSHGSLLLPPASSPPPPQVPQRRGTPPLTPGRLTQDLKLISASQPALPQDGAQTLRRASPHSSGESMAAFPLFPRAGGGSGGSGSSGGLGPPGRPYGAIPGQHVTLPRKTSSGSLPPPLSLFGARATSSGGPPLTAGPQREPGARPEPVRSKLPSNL
The experiment in a line: Inhibition of human HCN4 expressed in HEK293 cells assessed as reduction in hyperpolarization activated current at 5 uM at holding potential of -80 mV by patch clamp assay relative to control. It counts as cell-based. In general terms: In patch-clamp work, channel activity is measured electrically.
Consider `COc1ccc(CN(Cc2ccc(OC)c(OC)c2)[C@@H]2CCC[C@H](N3CCc4cc(OC)c(OC)cc4CC3=O)C2)cc1OC`, for which the inhibition was 4%. With `COc1ccc(CCN(C)[C@@H]2CC=C[C@H](N3C=Cc4cc(OC)c(OC)cc4CC3=O)C2)cc1OC`, the inhibition amounted to 30%. Turning to `COc1ccc(OCCN(C)[C@@H]2CCC[C@H](N3CCc4cc(OC)c(OC)cc4CC3=O)C2)cc1OC`, the inhibition is 48%. Same read-out and setting: as for `COc1ccc(/C=C/CN(C)[C@@H]2CCC[C@H](N3CCc4cc(OC)c(OC)cc4CC3=O)C2)cc1OC` (relative stereo), the figure is 64%; as for `COc1ccc(CN(C)[C@@H]2CCC[C@H](N3CCc4cc(OC)c(OC)cc4CC3=O)C2)cc1OC` (relative stereo), 21%; as for `COc1ccc(CCN(C)C2CCCC(N3CCc4cc(OC)c(OC)cc4CC3=O)C2)cc1OC` (single isomer, unassigned; (+)), 46%. Same read-out and setting: the figure for `COc1ccc(CCCN(C)[C@@H]2CCC[C@H](N3CCc4cc(OC)c(OC)cc4CC3=O)C2)cc1OC` (relative stereo) is 47%; for `COc1ccc(CCN(C)C2CCCC(N3CCc4cc(OC)c(OC)cc4CC3=O)C2)cc1OC` (single isomer, unassigned; (-)) it is 45%.

A further test addresses T1, Potassium/sodium hyperpolarization-activated cyclic nucleotide-gated channel 4 (Homo sapiens). The experiment in a line: Inhibition of human HCN4 expressed in HEK293 cells assessed as reduction in hyperpolarization activated current at 10 uM at holding potential of -80 mV by patch clamp assay relative to control. It counts as cell-based.
In the case of `COc1ccc(CCN(C)CCCN2CCc3cc(OC)c(OC)cc3CC2=O)cc1OC`, the inhibition is 59%.
